These results are taken from ChEMBL document CHEMBL1201862, “PubChem BioAssay data set” (2004).

Some test systems named below: Malme-3M; HOP-92; IGROV-1; 786-0; SF-295; SK-MEL-5; CAKI-1; HT-29; OVCAR-8; K562; RXF 393; UACC-62; ACHN; A549; KM12; U-251; SNB-75; M14.
Holding throughout (assay): NCI tumour cell line growth inhibition, 48 h

SMILES strings stand for the structures.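 All cell lines were grown in 96-well plates and treated with compound for 48 hours. At the GI50, growth is halved.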 The source made the active and inactive calls. Rule as the data show it: active = GI50 up to about 1.1 µM and inactive = higher.

As for `O=C(N/N=C/c1cc(Br)ccc1O)N/N=C/c1cc(Br)ccc1O`, the GI50 is 3.64 µM (inactive) with Malme-3M; 0.661 µM (active) in the assay on HOP-92; 2.14 µM (inactive) with IGROV-1; 4.93 µM (inactive) with 786-0; 3.84 µM (inactive) with SF-295; 2.49 µM (inactive) in the assay on SK-MEL-5. In addition, the GI50 in the assay on CAKI-1 is 2.79 µM (inactive); in the assay on HT-29 it was 5.97 µM (inactive); in the assay with OVCAR-8 it was 2.54 µM (inactive); in the assay on K562, 0.377 µM (active); in the assay with RXF 393 it was > 100 µM (inactive); in the assay with UACC-62, 2.24 µM (inactive). Further, the GI50 in the assay with ACHN is 4.6 µM (inactive); with A549, 1.56 µM (inactive); in the assay with KM12, 5.35 µM (inactive); with U-251 it was 3.55 µM (inactive).
For `CSc1ccc(Cc2cc(C(C)(C)C)cc(C(C)(C)C)c2O)cc1`, the GI50 in the assay on Malme-3M was 15.2 µM (inactive); in the assay with IGROV-1, 13.8 µM (inactive); with 786-0, 16.7 µM (inactive); with SF-295 it was 17.6 µM (inactive); with SK-MEL-5, 15.6 µM (inactive); in the assay with SNB-75 it was 16 µM (inactive). Besides, the GI50 was 16.7 µM (inactive) in the assay on CAKI-1; 13.8 µM (inactive) in the assay on HT-29; 16.9 µM (inactive) in the assay on OVCAR-8; 12 µM (inactive) in the assay on K562; 13.3 µM (inactive) in the assay on RXF 393; 15.1 µM (inactive) in the assay on M14. Besides, the GI50 in the assay on UACC-62 is 15.3 µM (inactive); in the assay on ACHN, 15 µM (inactive); in the assay on A549, 13.6 µM (inactive); with KM12, 11 µM (inactive); with U-251 it was 14.8 µM (inactive).
As for `O=C1NC(=O)C2C(=O)NC(=O)C1C2(c1ccccc1)c1cc[nH]c1` (stereo not given), the GI50 in the assay on Malme-3M, in the assay with HOP-92, in the assay with IGROV-1, in the assay with 786-0, with SF-295 and with SK-MEL-5 was > 100 µM (inactive) in each case. For the same compound, the GI50 in the assay with SNB-75, with CAKI-1, in the assay with HT-29, in the assay on OVCAR-8, in the assay with K562 and in the assay on RXF 393 was > 100 µM (inactive) throughout. The GI50 in the assay on M14, with UACC-62, in the assay on ACHN, in the assay on A549 and in the assay on KM12 was > 100 µM (inactive) in each case.
As for `CCOC(=O)/C(C(=O)c1ccccc1)=C1\N[C@H](C(=O)OCC)CS1`, the GI50 in the assay with Malme-3M is > 100 µM (inactive); in the assay with IGROV-1, > 100 µM (inactive); with 786-0, 10 µM (inactive); with SF-295 it was > 100 µM (inactive); with SK-MEL-5 it was 92.3 µM (inactive); in the assay on SNB-75, > 100 µM (inactive). The GI50 in the assay on CAKI-1, with HT-29, in the assay with OVCAR-8, in the assay on K562, in the assay with RXF 393 and in the assay with M14 was > 100 µM (inactive) throughout. The GI50 in the assay with UACC-62, in the assay with ACHN, with A549, in the assay on KM12 and in the assay with U-251 was > 100 µM (inactive) throughout.
Take `O=C1CC[C@H]2CNC(=O)C[C@H]2C1`: the GI50 in the assay with Malme-3M, in the assay on HOP-92, in the assay on IGROV-1, with 786-0, in the assay with SF-295 and in the assay with SK-MEL-5 was > 100 µM (inactive) in each case. Also, the GI50 with SNB-75, in the assay with CAKI-1, with HT-29, in the assay on OVCAR-8, in the assay on K562 and with RXF 393 was > 100 µM (inactive) in each case. Moreover, the GI50 in the assay with M14, with UACC-62, in the assay with A549, with KM12 and in the assay on U-251 was > 100 µM (inactive) each time.
Consider `O=C(O)CCc1nn2c(nc1=O)sc1ccc3ccccc3c12`, for which the GI50 with Malme-3M, in the assay on HOP-92, with IGROV-1, with 786-0, in the assay with SF-295 and with SK-MEL-5 was > 100 µM (inactive) throughout. The GI50 in the assay with SNB-75, in the assay with CAKI-1, with HT-29, in the assay with OVCAR-8, in the assay on K562 and with RXF 393 was > 100 µM (inactive) throughout. Besides, the GI50 in the assay on M14, in the assay with UACC-62, in the assay with ACHN, in the assay on A549 and in the assay on U-251 was > 100 µM (inactive) in each case.
As for `COC(=O)/C(=N\Nc1nnc(C)n1N)C(C#N)c1ccc(Cl)cc1` (stereo not given), the GI50 in the assay on Malme-3M was > 100 µM (inactive); in the assay on HOP-92, > 100 µM (inactive); with IGROV-1 it was > 100 µM (inactive); in the assay on 786-0 it was 34.7 µM (inactive); in the assay with SF-295, > 100 µM (inactive); in the assay with SNB-75, > 100 µM (inactive). In addition, the GI50 in the assay on CAKI-1, in the assay on HT-29, with OVCAR-8, in the assay with RXF 393, in the assay on M14 and with UACC-62 was > 100 µM (inactive) each time. Besides, the GI50 in the assay with ACHN, in the assay on A549, with KM12 and with U-251 was > 100 µM (inactive) each time.
Consider `N#CC(C(=O)/C(=N\Nc1nc(S)nn1N)C(C#N)c1ccc(Cl)cc1)c1ccc(Cl)cc1` (stereo not given), for which the GI50 in the assay on Malme-3M, in the assay with HOP-92, in the assay on IGROV-1, with 786-0, in the assay on SF-295 and with SNB-75 was > 100 µM (inactive) throughout. Besides, the GI50 in the assay with CAKI-1, in the assay with HT-29, in the assay on OVCAR-8, with RXF 393, with M14 and in the assay with UACC-62 was > 100 µM (inactive) each time. Further, the GI50 in the assay on ACHN, with A549, in the assay on KM12 and in the assay with U-251 was > 100 µM (inactive) each time.
On to `COc1ccc(C(C#N)Cc2cc(OC)c(OC)c(OC)c2)cc1` (stereo not given), for which the GI50 with Malme-3M was 43.1 µM (inactive); in the assay with HOP-92, 21.7 µM (inactive); in the assay on IGROV-1, 31.9 µM (inactive); in the assay with 786-0, 44.1 µM (inactive); in the assay on SF-295 it was 10.3 µM (inactive); with SK-MEL-5 it was 17.6 µM (inactive). In addition, the GI50 was 29.3 µM (inactive) in the assay on CAKI-1; 33 µM (inactive) with HT-29; 37 µM (inactive) in the assay on OVCAR-8; 4.99 µM (inactive) in the assay on K562; 16.4 µM (inactive) with RXF 393; 33.4 µM (inactive) with M14. In addition, the GI50 in the assay on UACC-62 is 27.8 µM (inactive); with ACHN, 45.8 µM (inactive); in the assay on A549 it was 30.6 µM (inactive); in the assay with KM12 it was 24 µM (inactive); with U-251 it was 29.6 µM (inactive).
